{"source": "patent US6207389A", "about": "“Methods of controlling T lymphocyte mediated immune responses” (HRC Research and Development Limited Partnership, priority 1995, dated 2001)", "key": {"[1]": {"test_system": "PBMC from children with recent onset diabetes", "assay": "Proliferative response of PBMC to peptide fragments in the presence of IL2 (Example 4)", "format": "cell-based, human", "details": "patient PBMC", "experimental": "(§1) Cultures containing 5×10^4 cells were incubated for 7 days at 37° C. in serum-free HL-1 medium (Ventrex, Portland, Me.) containing 1 μg antigen per well for test samples.\n(§2) After an overnight pulse of 1 μci ^3 H thymidine, cultures were harvested and submitted to liquid scintillation counting. Proliferation was expressed as cpm ^3 HTdR×10^-3.\nControl cultures were stimulated with 1 μg ovalbumin or horse or human albumin. […] A 4 h. pulse with 1 μCi ^3 H thymidine was used.\nEach synthetic peptide was tested with PBMC from at least 3 children with recent onset diabetes. Stimulation Index=^3 H Thymidine Incorporation in peptide-stimulated culture in cpm divided by Thymidine incorporation in control culture in cpm.\nPeptides corresponding to stretches of the amino acid sequence of human p69 were also synthesised and the proliferative response to patient PBMC cultures to these peptides were similarly tested, in the presence of IL2."}, "[2]": {"test_system": "PBMC from children with recent onset diabetes", "assay": "T cell proliferation assay with BSA and rec-p69, patients (Example 3)", "format": "cell-based, human", "details": "1 μg antigen", "experimental": "as §1\n(§3) Control cultures were treated with 1 μg human, chick or horse albumin or an equivalent volume of control recombinant antigen prepared from lysates of E. coli carrying wild type plasmid.\nas §2\n(§4) A parallel set of cell cultures was incubated with the same test antigens or control agents in the presence of 10 U human IL2."}, "[3]": {"test_system": "PBMC from healthy subjects", "assay": "T cell proliferation assay with BSA and rec-p69, healthy subjects (Example 3)", "format": "cell-based, human", "details": "with or without IL2", "experimental": "as §1, §3, §2, §4"}, "[4]": {"test_system": "PBMC cultures from patients with recent onset diabetes", "assay": "Proliferative responses to antigen mixtures (Example 5)", "format": "cell-based, human", "details": "patient PBMC, no IL2 (FIG. 9A)", "experimental": "Proliferation assays were conducted as described in Example 3. Control cultures were treated with 1 μg horse albumin or with the peptides P2240, P2269, P2270 or H1029. Results with control antigens were similar and data were pooled.\nResponses were expressed as mean of triplicate cultures; variations were <12%. Responses in the absence of IL2 are shown in FIG. 9, Panel A. Parallel cultures were treated with the same antigens and antigen mixtures in the presence of 10U IL2."}, "[5]": {"test_system": "PBMC from a child with recent onset diabetes", "assay": "Proliferative response, patient cells (Example 6)", "format": "cell-based, human", "details": "1 μg antigen per culture, 7 days", "experimental": "Replicate cultures of PBMC from a child with recent onset diabetes and a healthy control subject were stimulated with P2267, Tep69, Herpes simplex antigen or a mixture of P2267 and Tep69 (1 μg antigen per culture) as described in Example 3. After 2 days of incubation, one patient cell culture and one healthy control culture were harvested for RNA extraction and measurement of IL2 receptor transcripts by RT-PCR, as described by Cheung et al., (1991), J. Biol. Chem., v. 266, pp. 8667-8670. PCR was used to amplify a 739 bp fragment of IL2R coding sequence from patient and control and also a 430 bp region in the human β-actin gene of patient.\nRemaining cultures were incubated for a further 5 days and used to determine proliferative responses as described in Example 3."}, "[6]": {"test_system": "female NOD mice", "assay": "IDDM development after immunotherapy with BSA or ABBOS in adjuvant (Example 7)", "format": "in vivo, mouse", "details": "150 μg BSA or 50 μg ABBOS in incomplete Freund's Adjuvant sc at 5 weeks, ip booster one week later; up to 9 months", "experimental": "(§5) A control group (13 mice) was injected with incomplete Freund's Adjuvant only and a further control group (13 mice) was untreated. A booster injection of the same treatment material was given intraperitoneally one week later.\nIDDM development was followed by testing for urine glucose and when urine glucose was detected, blood glucose was then determined."}, "[7]": {"test_system": "female NOD mice", "assay": "Circulating IgG anti-BSA antibodies by particle concentration fluoroimmunoassay (Example 7)", "format": "in vivo, mouse", "details": "same treatment; over 34 weeks", "experimental": "as §5\nCirculating IgG anti-BSA antibodies were measured over the 34 weeks of the experiment, using the particle concentration fluoroimmunoassay described by the inventors in International Patent Application No. PCT/CA93/000304."}, "[8]": {"test_system": "NOD mice lymph node cells", "assay": "Immunization and T cell proliferation assay, NOD mice (Example 11)", "format": "in vivo, mouse", "details": "50 μg sc in complete Freund's adjuvant, recall with 1 μg antigen in vitro", "experimental": "(§6) Recombinant truncated p69 was prepared by expression of a portion of the cDNA of IS4. The cDNA was cut a few nucleotides downstream of the 3' terminal of exon 3 and was subcloned into the PET™ expression system according to the manufacturer's recommendations (Novagen Inc., Madison, Wis.). The truncated protein contains 100 amino acids and is essentially identical with the murine molecule.\n(§7) Antigens were injected subcutaneously in complete Freunds' adjuvant, and local lymph nodes and blood samples were collected 10 days later. Triplicate cultures of 2×10^5 lymph node cells were incubated for 5 days in serum-free HGM-af Medium™ (Promo Cell, Heidelberg, Germany) in the presence of 1 μg of protein or synthetic peptide as recall antigen. Six hours before harvesting, 1 μCi ^3 H-thymidine (6.7 Ci/mmol) was added to the wells, and isotope incorporation was analysed by liquid scintillation counting. Values are expressed as mean counts per minute ± standard deviation (mean cpm ± SD).\n(§8) Young male NOD mice (H2^G7, IE^-/-) received a single immunization with truncated p69 (as encoded by IS4 cDNA) in complete adjuvant, and antibody and T cell proliferative responses were measured 8-10 days later. MHC disparate C57/B6 (H2^b, IE^-/-) and SJL (H2^s, IE^-/-) mice served as non-diabetes prone controls (FIG. 31)."}, "[9]": {"test_system": "C57/B6 and SJL mice lymph node cells", "assay": "Immunization and T cell proliferation assay, non-diabetes prone control mice (Example 11)", "format": "in vivo, mouse", "details": "50 μg sc in complete Freund's adjuvant", "experimental": "as §6, §7, §8"}, "[10]": {"test_system": "NOD mice", "assay": "Serum antibodies to BSA and p69 by fluoroimmunoassay, NOD mice (Example 11)", "format": "in vivo, mouse", "details": "50 μg sc in complete Freund's adjuvant", "experimental": "(§9) Male non-obese diabetic mice (NOD, 6-7 weeks old) were immunized with 50 μg BSA, ABBOS-short peptide ([…]), recombinant truncated p69 or p69 T cell epitope peptide `Tep69` ([…]) (10). Recombinant truncated p69 was prepared by expression of a portion of the cDNA of IS4. The cDNA was cut a few nucleotides downstream of the 3' terminal of exon 3 and was subcloned into the PET™ expression system according to the manufacturer's recommendations (Novagen Inc., Madison, Wis.).\n(§10) Antigens were injected subcutaneously in complete Freunds' adjuvant, and local lymph nodes and blood samples were collected 10 days later. […] Six hours before harvesting, 1 μCi ^3 H-thymidine (6.7 Ci/mmol) was added to the wells, and isotope incorporation was analysed by liquid scintillation counting. Values are expressed as mean counts per minute ± standard deviation (mean cpm ± SD).\n(§11) Serum antibodies to BSA and p69 were measured by particle concentration fluoroimmunoassay, as described (11). […] Bound fluorescence was read by an automated ScreenMachine™ instrument (IDEXX, Portland, Me.). Data are expressed in kilofluorescence units relative to a standard mouse serum analyzed in parallel within each assay plate.\n(§12) Young male NOD mice (H2^G7, IE^-/-) received a single immunization with truncated p69 (as encoded by IS4 cDNA) in complete adjuvant, and antibody and T cell proliferative responses were measured 8-10 days later. […]"}, "[11]": {"test_system": "C57/B6 and SJL mice", "assay": "Serum antibodies to BSA and p69 by fluoroimmunoassay, control mice (Example 11)", "format": "in vivo, mouse", "details": "50 μg sc in complete Freund's adjuvant", "experimental": "as §9, §10, §11, §12"}}, "data": [{"substance": "bovine serum albumin [BSA]", "values": [{"measurement": "PBMC proliferative response", "setting": "[1]", "result": "significantly higher than responses to control antigens or peptides"}, {"measurement": "proliferative response of patient samples", "setting": "[2]; absence of IL2", "result": "marked proliferative response"}, {"measurement": "proliferative response of patient samples", "setting": "[2]; presence of 10 U IL2", "result": "increased response"}, {"measurement": "proliferative response of samples from healthy subjects", "setting": "[3]", "result": "no significant proliferative response"}, {"measurement": "PBMC proliferation in the absence of IL2", "setting": "[4]", "result": "gave PBMC proliferation in the absence of IL2"}, {"measurement": "proliferation of patient cells", "setting": "[5]", "result": "6740±480", "unit": "cpm"}, {"measurement": "development of IDDM", "setting": "[6]", "result": "complete prevention of IDDM"}, {"measurement": "anti-BSA antibody response", "setting": "[7]", "result": "massive antibody response"}, {"measurement": "T cell proliferative response after immunisation", "setting": "[8]", "result": "vigorous B- and T cell responses"}, {"measurement": "T cell proliferative response after immunisation", "setting": "[9]", "result": "vigorous B- and T cell responses"}, {"measurement": "antibody response after immunisation (anti-p69 or anti-BSA)", "setting": "[10]", "result": "vigorous B- and T cell responses"}, {"measurement": "antibody response after immunisation (anti-p69 or anti-BSA)", "setting": "[11]", "result": "vigorous B- and T cell responses"}]}]}
